Molecular target: T1, GBA2 E527G mutant and E527G/D667G double mutant (Homo sapiens, UniProt Q9HCG7, E527G)
T1 construct: expressed in transfected cells; host or cells: HEK293T
T1 sequence (Q9HCG7 1-927 E527G): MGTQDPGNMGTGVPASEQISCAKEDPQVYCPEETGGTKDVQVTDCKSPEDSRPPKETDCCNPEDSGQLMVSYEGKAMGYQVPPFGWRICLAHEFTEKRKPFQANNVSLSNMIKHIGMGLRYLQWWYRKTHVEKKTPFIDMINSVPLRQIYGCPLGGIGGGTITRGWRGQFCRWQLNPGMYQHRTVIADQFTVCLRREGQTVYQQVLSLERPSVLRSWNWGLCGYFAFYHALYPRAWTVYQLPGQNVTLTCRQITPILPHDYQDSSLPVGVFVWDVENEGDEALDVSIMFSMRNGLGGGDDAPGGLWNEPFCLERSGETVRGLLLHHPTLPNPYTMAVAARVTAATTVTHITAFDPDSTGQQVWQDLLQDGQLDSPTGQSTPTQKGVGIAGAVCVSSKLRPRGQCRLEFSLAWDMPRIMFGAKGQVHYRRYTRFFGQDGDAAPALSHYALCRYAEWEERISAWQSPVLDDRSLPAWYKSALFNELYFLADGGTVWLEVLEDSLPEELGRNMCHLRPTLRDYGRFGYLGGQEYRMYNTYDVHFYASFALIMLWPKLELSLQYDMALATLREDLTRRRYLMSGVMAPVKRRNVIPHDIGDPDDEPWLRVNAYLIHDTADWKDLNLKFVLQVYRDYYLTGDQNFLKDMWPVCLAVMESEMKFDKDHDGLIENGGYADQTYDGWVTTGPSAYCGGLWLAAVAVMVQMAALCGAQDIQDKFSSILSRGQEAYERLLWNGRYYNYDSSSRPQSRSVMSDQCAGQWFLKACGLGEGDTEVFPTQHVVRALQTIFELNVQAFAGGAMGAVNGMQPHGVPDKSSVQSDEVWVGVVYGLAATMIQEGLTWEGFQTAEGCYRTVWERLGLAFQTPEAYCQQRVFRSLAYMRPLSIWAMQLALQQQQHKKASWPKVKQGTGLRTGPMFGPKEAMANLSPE
Test: ABP labeling of mutant GBA2 expressed in HEK293T cells
Assay type: biochemical
Conditions: HEK293T cells expressing mutant GBA2
Description: Figure 4 (A) ABP labeling of β‐D‐glucosidases. A lysate of HEK293T cells expressing human GBA, GBA2 and GBA3 was incubated with indicated ABPs (6, 9 or 10) for 30 min at pH 6.0. Fluorescently labeled proteins were visualized after SDS‐PAGE. (B) Labeling with ABP 6 of wild type or mutant GBA2 (E527G nucleophile mutation and D667G acid/base mutation) expressed in HEK293T cells.
Cell culture: HEK293T (CRL‐3216) were purchased from ATCC (Manassas, VA, USA). HEK293T cells were cultured in DMEM medium (Sigma‐Aldrich), supplied with 10 % (v/v) FCS, 0.1 % (w/v) penicillin/streptomycin and 1 % (v/v) Glutamax, under 7 % CO2. […] First the GBA Knockout cells were generated using the annealed oligonucleotides (top strand) 5’‐CACCGCGCTATGAGAGTACACGCAG‐3’ and (bottom strand 5’‐AAACCTGCGTGTACTCTCATAGCGC‐3’ and after ligation in the BbsI site of the px330 and subsequent transfection into the HEK293T cells. Single cells were created and the different clones were analyzed for lack of expression of GBA with enzyme activity assays and ABPs and subsequent genomic sequence analysis. The true GBA knockout cells were next used to create the GBA/GBA2 double knockout cells (using the px330 and the following annealed and ligated oligonucleotides (top strand 5‐CACCGGACGGACTGCTGCAATCCGG‐3’ and bottom strand 5’‐AAACCCGGATTGCAGCAGTCCGTCC‐3’. […]

## CN1/C(=C/C=C/C=C/C2=[N+](CCCCCC(=O)NCc3cn(CCCCCCCCN4[C@H]5[C@H](O)[C@@H](O)[C@H](O)C[C@H]54)nn3)c3ccccc3C2(C)C)C(C)(C)c2ccccc21 (stereo partly shown) [ABP 6]
  labeling of GBA2 E527G mutant and E527G/D667G double mutant: no longer labeled

From article PMC8596838, “Xylose‐Configured Cyclophellitols as Selective Inhibitors for Glucocerebrosidase” (Chembiochem, 2021)
